From the NIST ThermoML archive (doi:10.1016/j.jct.2018.12.019)
± gives the expanded uncertainty stated by the source.

Key:
[1] = 98 kPa, Liquid; for speed of sound: Frequency=3 MHz, Single path-length method; for mass density: Vibrating tube method
[2] = xn = mol fraction of the nth substance listed; settings: 98 kPa, Liquid, x2 = 0; for speed of sound: Frequency=3 MHz, Single path-length method; for mass density: Vibrating tube method
[3] = excess molar enthalpy (molar enthalpy of mixing); xn = mol fraction of the nth substance listed; settings: 298.15 K; 98 kPa; Liquid; Calvet calorimetry; x2 = 0

SMILES | speed of sound ([1]; 288.15 K) [m/s] | mass density ([1]; 288.15 K) [kg/m3] | speed of sound ([1]; 298.15 K) [m/s] | mass density ([1]; 298.15 K) [kg/m3] | speed of sound ([1]; 308.15 K) [m/s] | mass density ([1]; 308.15 K) [kg/m3] | speed of sound ([1]; 318.15 K) [m/s] | mass density ([1]; 318.15 K) [kg/m3] | speed of sound ([1]; 328.15 K) [m/s] | mass density ([1]; 328.15 K) [kg/m3] | speed of sound ([2]; 328.15 K) [m/s] | mass density ([2]; 328.15 K) [kg/m3] | speed of sound ([2]; 288.15 K) [m/s] | mass density ([2]; 288.15 K) [kg/m3] | speed of sound ([2]; 298.15 K) [m/s] | mass density ([2]; 298.15 K) [kg/m3] | speed of sound ([2]; 308.15 K) [m/s] | mass density ([2]; 308.15 K) [kg/m3] | speed of sound ([2]; 318.15 K) [m/s] | mass density ([2]; 318.15 K) [kg/m3] | also measured
Cn1ccnc1 [1-methylimidazole] | 1634.1 ± 1.4 | 1039.36 ± 0.83 | 1596.5 ± 1.4 | 1030.52 ± 0.83 | 1559 ± 1.4 | 1021.66 ± 0.83 | 1521.8 ± 1.4 | 1012.76 ± 0.83 | 1485 ± 1.4 | 1003.83 ± 0.83 | – | – | – | – | – | – | – | – | – | – | –
CCCO [propan-1-ol] | 1239.5 ± 1 | 807.5 ± 0.81 | 1205.2 ± 1 | 799.53 ± 0.81 | 1171.1 ± 1 | 791.44 ± 0.81 | 1137.3 ± 1 | 783.18 ± 0.81 | 1103.8 ± 1 | 774.7 ± 0.81 | – | – | – | – | – | – | – | – | – | – | –
O [water] + Cn1ccnc1 | – | – | – | – | – | – | – | – | – | – | 1547.3 ± 1 | 985.71 ± 0.8 | – | – | – | – | – | – | – | – | –
CC(C)O [propan-2-ol] + Cn1ccnc1 | – | – | – | – | – | – | – | – | – | – | 1031.9 ± 1.1 | 753.91 ± 0.81 | 1173.2 ± 1.1 | 789.18 ± 0.81 | 1138.4 ± 1.1 | 780.86 ± 0.81 | 1103.3 ± 1.1 | 772.26 ± 0.81 | 1067.9 ± 1.1 | 763.3 ± 0.81 | excess molar enthalpy [3]: 0 ± 0.000239 kcal/mol
CCO [ethanol] + Cn1ccnc1 | – | – | – | – | – | – | – | – | – | – | 1041.9 ± 1.1 | 758.65 ± 0.81 | 1176.9 ± 1.1 | 793.68 ± 0.81 | 1142.7 ± 1.1 | 785.14 ± 0.81 | 1108.8 ± 1.1 | 776.48 ± 0.81 | 1075.2 ± 1.1 | 767.68 ± 0.81 | excess molar enthalpy [3]: 0 ± 0.000239 kcal/mol
CC(C)O [propan-2-ol] | 1173.2 ± 1.1 | 789.18 ± 0.81 | 1138.4 ± 1.1 | 780.86 ± 0.81 | 1103.3 ± 1.1 | 772.26 ± 0.81 | 1067.9 ± 1.1 | 763.3 ± 0.81 | 1031.9 ± 1.1 | 753.91 ± 0.81 | – | – | – | – | – | – | – | – | – | – | –
CO [methanol] + Cn1ccnc1 | – | – | – | – | – | – | – | – | – | – | 1005.3 ± 1.1 | 757.97 ± 0.81 | 1135.7 ± 1.1 | 796.13 ± 0.81 | 1102.6 ± 1.1 | 786.75 ± 0.81 | 1069.8 ± 1.1 | 777.29 ± 0.81 | 1037.4 ± 1.1 | 767.71 ± 0.81 | –
CCO [ethanol] | 1176.9 ± 1.1 | 793.68 ± 0.81 | 1142.7 ± 1.1 | 785.14 ± 0.81 | 1108.8 ± 1.1 | 776.48 ± 0.81 | 1075.2 ± 1.1 | 767.68 ± 0.81 | 1041.9 ± 1.1 | 758.65 ± 0.81 | – | – | – | – | – | – | – | – | – | – | –
CO [methanol] | 1135.7 ± 1.1 | 796.13 ± 0.81 | 1102.6 ± 1.1 | 786.75 ± 0.81 | 1069.8 ± 1.1 | 777.29 ± 0.81 | 1037.4 ± 1.1 | 767.71 ± 0.81 | 1005.3 ± 1.1 | 757.97 ± 0.81 | – | – | – | – | – | – | – | – | – | – | –
CCCO [propan-1-ol] + Cn1ccnc1 | – | – | – | – | – | – | – | – | – | – | 1103.8 ± 1 | 774.7 ± 0.81 | 1239.5 ± 1 | 807.5 ± 0.81 | 1205.2 ± 1 | 799.53 ± 0.81 | 1171.1 ± 1 | 791.44 ± 0.81 | 1137.3 ± 1 | 783.18 ± 0.81 | excess molar enthalpy [3]: 0 ± 0.000239 kcal/mol
